Reference: patent US20040058880A1, “Aminoglycoside antibiotics as novel anti-infective agents” (priority 2002, published 2004)
In brackets after ≈: the same amount, converted by molar mass.

What was measured:
Experiment in all cases: In vitro antibacterial MIC, 96-well broth assay
P. aeruginosa ATCC 27853 = assay type: cell-based, Pseudomonas aeruginosa; conditions: growth by A595 after 24 h, 10^5-10^6 CFU/well; for MIC: Pseudomonas aeruginosa, ATCC27853
Method: (§1) In Vitro Antibacterial Activity Determination of Minimum Inhibitory Concentrations (MICs).
(§2) The assays are carried out in 96-well flat-bottom plates. The bacterial suspension from an overnight culture grown in appropriate medium is added to a solution of test compound in water. Final bacterial inoculums are approximately 10^5-10^6 CFU/well. The percent growth of bacteria in test wells relative to that observed for a well containing no compound is determined by measuring absorbance at 595 nm (A595) after 24 h. The MIC (μg/mL) is determined as a range of single compound where the complete inhibition of growth is observed at the higher concentration and cells are viable at the lower concentrations. Tobramycin is used as an antibiotic-positive control in each screening assay for Pseudomonas aeruginosa, Acinetobacter species, Streptococci viridans, Proteus species, Hemophilus influenzae, Citrobacter species, Serratia marcescens, Staphylococcus aureus, Streptococcus pyogenes, Escherichia coli, Enterobacter species, Enterococcus faecalis, Enterococcus faecium Klebsiella pneumoniae and Providencia stuartii.

P. aeruginosa ATCC 35151 = assay type: cell-based, Pseudomonas aeruginosa; conditions: growth by A595 after 24 h, 10^5-10^6 CFU/well; for MIC: Pseudomonas aeruginosa, ATCC35151
Method: as §1, §2

P. aeruginosa PAO-1 = assay type: cell-based, Pseudomonas aeruginosa; conditions: growth by A595 after 24 h, 10^5-10^6 CFU/well; for MIC: Pseudomonas aeruginosa, PAO1
Method: as §1, §2

[1] = tested on: S. aureus ATCC 29213 (MSSA); assay type: cell-based, Staphylococcus aureus; conditions: growth by A595 after 24 h, 10^5-10^6 CFU/well; for MIC: Staphylococcus aureus
Method: as §1, §2

[2] = tested on: S. aureus ATCC 33591 (MRSA); assay type: cell-based, Staphylococcus aureus; conditions: growth by A595 after 24 h, 10^5-10^6 CFU/well; for MIC: Staphylococcus aureus
Method: as §1, §2

E. coli ATCC 25922 = assay type: cell-based, Escherichia coli; conditions: growth by A595 after 24 h, 10^5-10^6 CFU/well; for MIC: Escherichia coli, ATCC25922
Method: as §1, §2

E. faecalis ATCC 29212 = assay type: cell-based, Enterococcus faecalis; conditions: growth by A595 after 24 h, 10^5-10^6 CFU/well; for MIC: Enterococcus faecalis, ATCC29212
Method: as §1, §2

| Compound | MIC (P. aeruginosa ATCC 27853) [mg/L] | MIC (P. aeruginosa ATCC 35151) [mg/L] | MIC (P. aeruginosa PAO-1) [mg/L] | MIC [1] [mg/L] | MIC [2] [mg/L] | MIC (E. coli ATCC 25922) [mg/L] | MIC (E. faecalis ATCC 29212) [mg/L] | MIC P. aeruginosa ATCC 27853 (P. aeruginosa ATCC 27853) [mg/L] | MIC P. aeruginosa ATCC 35151 (P. aeruginosa ATCC 35151) [mg/L] | MIC P. aeruginosa PAO-1 (P. aeruginosa PAO-1) [mg/L] | MIC S. aureus ATCC 29213 (MSSA) [1] [mg/L] | MIC S. aureus ATCC 33591 (MRSA) [2] [mg/L] | MIC E. coli ATCC 25922 (E. coli ATCC 25922) [mg/L] | MIC E. faecalis ATCC 29212 (E. faecalis ATCC 29212) [mg/L] |
| --- | --- | --- | --- | --- | --- | --- | --- | --- | --- | --- | --- | --- | --- | --- |
| N=C(N)NC[C@H]1O[C@H](O[C@H]2[C@H](O)[C@@H](O[C@H]3O[C@H](CO)[C@@H](O)[C@H](O)[C@H]3N)[C@H](N)C[C@@H]2N)[C@H](N)C[C@@H]1O [Compound 4a, 4-(2-amino-6-guanidinyl-2,3,6-dideoxy-α-D-glucopyranosyl)-6-(2-amino-2-deoxy-1-α-D-glucopyranosyl)-2-deoxystreptamine] | > 64 | > 64 | 64 (≈ 126 µM) | 64 (≈ 126 µM) | > 64 | 64 (≈ 126 µM) | > 64 | – | – | – | – | – | – | – |
| NC[C@H]1O[C@H](O[C@H]2[C@H](O)[C@@H](OCCCNCCCCNCCCO[C@@H]3[C@@H](O)[C@H](O[C@H]4O[C@H](CN)[C@@H](O)C[C@H]4N)[C@@H](N)C[C@H]3N)[C@H](N)C[C@@H]2N)[C@H](N)C[C@@H]1O [Compound 18a] | 16 (≈ 20.5 µM) | 32 (≈ 41 µM) | 8 (≈ 10.2 µM) | 4 (≈ 5.12 µM) | 32 (≈ 41 µM) | 16 (≈ 20.5 µM) | > 64 | – | – | – | – | – | – | – |
| NCCCCNCCCO[C@@H]1[C@@H](O)[C@H](O[C@H]2O[C@H](CN)[C@@H](O)C[C@H]2N)[C@@H](N)C[C@H]1N [Compound 19a] | > 32 | > 32 | > 32 | > 32 | > 32 | > 32 | > 32 | – | – | – | – | – | – | – |
| NCCCCNCC(O)CO[C@@H]1[C@@H](O)[C@H](O[C@H]2O[C@H](CN)[C@@H](O)C[C@H]2N)[C@@H](N)C[C@H]1N (stereo partly drawn) [Compound 14a] | 32 (≈ 71 µM) | 16 (≈ 35.5 µM) | 16 (≈ 35.5 µM) | 8 (≈ 17.8 µM) | > 64 | 16 (≈ 35.5 µM) | > 64 | – | – | – | – | – | – | – |
| NC[C@H]1O[C@H](O[C@H]2[C@H](O)[C@@H](O[C@H]3O[C@H](CO)[C@@H](O)[C@H](O)[C@H]3N)[C@H](N)C[C@@H]2N)[C@H](N)C[C@@H]1O [Compound 3a, 4-(2,6-diamino-2,3,6-dideoxy-α-D-glucopyranosyl)-6-(2-amino-2-deoxy-1-α-D-glucopyranosyl)-2-deoxystreptamine] | 1 (≈ 2.14 µM) | 1 (≈ 2.14 µM) | 0.5 (≈ 1.07 µM) | 1 (≈ 2.14 µM) | > 64 | 2 (≈ 4.28 µM) | 16 (≈ 34.2 µM) | – | – | – | – | – | – | – |
| 4-(2,6-diamino-2,3,6-dideoxy-α-D-glucopyranosyl)-6-(4-amino-4-deoxy-1-α-D-glucopyranosyl)-2-deoxystreptamine [Compound 3b] | – | – | – | – | – | – | – | 16 | 16 | 8 | 32 | >64 | 32 | >64 |
| NC[C@H]1O[C@H](O[C@H]2[C@H](O)[C@@H](O[C@H]3O[C@H](CO)[C@@H](O)[C@H](N)[C@H]3O)[C@H](N)C[C@@H]2N)[C@H](N)C[C@@H]1O [Tobramycin, reference compound] | 0.5 (≈ 1.07 µM) | 0.5 (≈ 1.07 µM) | 0.25 (≈ 0.535 µM) | 0.5 (≈ 1.07 µM) | > 64 | 1 (≈ 2.14 µM) | 16 (≈ 34.2 µM) | – | – | – | – | – | – | – |
| NCC1OC(OC2C(N)CC(N)C(OC3OC(CO)C(O)C(OC4OC(CO)C(O)C(O)C4N)C3N)C2O)C(N)CC1O (stereo not drawn) [Compound 3d, 5-Amino-6-{3-amino-2-[4,6-diamino-3-(3-amino-6-aminomethyl-5-hydroxy-tetrahydro-pyran-2-yloxy)-2-hydroxy-cyclohexyloxy]-5-hydroxy-6-hydroxymethyl-tetrahydro-pyran-4-yloxy}-2-hydroxymethyl-tetrahydro-pyran-3,4-diol] | 64 (≈ 102 µM) | 16 (≈ 25.5 µM) | 32 (≈ 50.9 µM) | 16 (≈ 25.5 µM) | > 64 | 32 (≈ 50.9 µM) | > 64 | – | – | – | – | – | – | – |
| NC[C@H]1O[C@H](O[C@H]2[C@H](O)[C@@H](O[C@H]3O[C@H](CNC4CC4)[C@@H](O)[C@H](N)[C@H]3O)[C@H](N)C[C@@H]2N)[C@H](N)C[C@@H]1O [Compound 9a] | 64 (≈ 126 µM) | 32 (≈ 63.2 µM) | 32 (≈ 63.2 µM) | 8 (≈ 15.8 µM) | 8 (≈ 15.8 µM) | 32 (≈ 63.2 µM) | > 64 | – | – | – | – | – | – | – |
| 4-(2,6-diamino-2,3,6-dideoxy-α-D-glucopyranosyl)-6-(2-amino-2-deoxy-4-amino-4-deoxy-α-D-glucopyranosyl)-2-deoxystreptamine [Compound 3c] | – | – | – | – | – | – | – | 2 | 1 | 1 | 1 | >64 | 2 | 32 |
| NC[C@H]1O[C@H](O[C@H]2[C@H](OCC(O)CNCCCCNCC(O)CO[C@@H]3[C@@H](O)[C@H](N)C[C@H](N)[C@H]3O[C@H]3O[C@H](CN)[C@@H](O)C[C@H]3N)[C@@H](O)[C@H](N)C[C@@H]2N)[C@H](N)C[C@@H]1O (stereo partly drawn) [Compound 27a] | 4 (≈ 4.92 µM) | 8 (≈ 9.84 µM) | 4 (≈ 4.92 µM) | 2 (≈ 2.46 µM) | 16 (≈ 19.7 µM) | 16 (≈ 19.7 µM) | 32 (≈ 39.4 µM) | – | – | – | – | – | – | – |
| NC[C@H]1O[C@H](O[C@H]2[C@H](O)[C@@H](OCC(O)CNCCCCNCC(O)CO[C@@H]3[C@@H](O)[C@H](O[C@H]4O[C@H](CN)[C@@H](O)C[C@H]4N)[C@@H](N)C[C@H]3N)[C@H](N)C[C@@H]2N)[C@H](N)C[C@@H]1O (stereo partly drawn) [Compound 13a] | 2 (≈ 2.46 µM) | 4 (≈ 4.92 µM) | 2 (≈ 2.46 µM) | 0.5 (≈ 0.615 µM) | 16 (≈ 19.7 µM) | 4 (≈ 4.92 µM) | 32 (≈ 39.4 µM) | – | – | – | – | – | – | – |
